The structures appear in SMILES notation. pIC50: −log10 of the molar value. Positions of bridges follow the written chain, without caps; N, C: chain ends. Non-standard residues stand in square brackets, D forms with d. Residues, ends and D or L forms follow the SMILES beside them. ξ: configuration not given here. *: point of attachment. X12 = O=C(O)CCCCCCCCCCCCCCCCCCC(=O)N[C@@H](CCC(=O)NCCCOCCOCCOCCCN*)C(=O)O; X6 = O=C(O)CCCCCCCCCCCCCCCCC(=O)N[C@@H](CCC(=O)NCCCOCCOCCOCCCN*)C(=O)O; X4 = O=C(O)CCCCCCCCCCCCCCCCC(=O)N[C@@H](CC(=O)NCCCOCCOCCOCCCN*)C(=O)O; X11 = O=C(O)CCCCCCCCCCCCC(=O)N[C@@H](CCC(=O)NCCCOCCOCCOCCCN*)C(=O)O; Trp(1-CH2COOH) = N[C@@H](Cc1cn(CC(=O)O)c2ccccc12)C(=O)O; Phe(4-F) = N[C@@H](Cc1ccc(F)cc1)C(=O)O; d(cisHyp) = O=C(O)[C@H]1C[C@@H](O)CN1; ξPro(4R-OH) = O=C(O)C1C[C@@H](O)CN1; Hyp = O=C(O)[C@@H]1C[C@@H](O)CN1; NMeNle = CCCC[C@H](NC)C(=O)O; Pip = O=C(O)[C@@H]1CCCCN1; NMeA = CN[C@@H](C)C(=O)O; Dab = NCC[C@H](N)C(=O)O; Dap = NC[C@H](N)C(=O)O

T1 sequence (Q9NZQ7 with tags, fused parts or gaps): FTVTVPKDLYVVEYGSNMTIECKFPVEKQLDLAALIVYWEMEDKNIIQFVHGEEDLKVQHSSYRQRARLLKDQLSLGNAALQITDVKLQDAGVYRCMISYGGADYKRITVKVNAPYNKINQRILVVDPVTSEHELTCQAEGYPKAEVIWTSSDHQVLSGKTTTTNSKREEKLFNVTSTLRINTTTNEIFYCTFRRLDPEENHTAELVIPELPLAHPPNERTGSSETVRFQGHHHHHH

The experiment addresses T1, PD-L1 (Homo sapiens, UniProt Q9NZQ7).
T1 construct: hPDL1(19-239)-TVMV-His; made in house; host or cells: HEK293T
The experiment in a line: PD-1/PD-L1 Homogenous Time-Resolved Fluorescence (HTRF) binding assay (PD-1-Ig/PD-L1-His). The following applies: inhibition of PD-1-Ig binding to PD-L1-TVMV-His; value given as range class; read-out: HTRF IC50. An outline of the steps: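 HTRF competition in dPBS with 0.1% BSA and 0.05% Tween-20: 20 nM PD-1-Ig added after 15 min compound pre-incubation with 10 nM PD-L1-His, then another 15 min. Signal (665/620 nm) after 30 min with APC anti-His (20 nM) and Eu anti-Ig (1 nM).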
The pIC50 is the negative decadic logarithm of the IC50, by convention in mol/L. With `CCCC[C@H]1C(=O)N(C)[C@@H](CCCC)C(=O)N[C@@H](CC(C)C)C(=O)N[C@H](C(=O)NCC(=O)N[C@@H](CC(=O)O)C(=O)N[C@@H](CC(=O)NCCCOCCOCCOCCCNC(=O)CC[C@H](NC(=O)CCCCCCCCCCCCCCCCCCC(=O)O)C(=O)O)C(=O)O)CSCC(=O)N[C@@H](Cc2ccc(O)cc2)C(=O)N(C)[C@@H](C)C(=O)N[C@@H](CC(N)=O)C(=O)N2CCC[C@H]2C(=O)N[C@@H](CN)C(=O)N[C@@H](CC(C)C)C(=O)N2C[C@H](O)CC2C(=O)N[C@@H](Cc2c[nH]c3ccccc23)C(=O)N[C@@H](CCN)C(=O)N[C@@H](Cc2cn(CC(=O)O)c3ccccc23)C(=O)N1C` (stereo partly drawn) [Example 11250] ({CH2CO}-Y[NMeA]NP[Dap]L[ξPro(4R-OH)]W[Dab][Trp(1-CH2COOH)][NMeNle][NMeNle]LCGDD(X12)-OH; thioether N-14), the pIC50 was 8.00 to 9.52. Then `CCCC[C@H]1C(=O)N(C)[C@@H](CCCC)C(=O)N[C@@H](CC(C)C)C(=O)N[C@H](C(=O)N[C@@H](CC(=O)O)C(=O)N[C@@H](CC(=O)NCCCOCCOCCOCCCNC(=O)CC[C@H](NC(=O)CCCCCCCCCCCCCCCCCCC(=O)O)C(=O)O)C(=O)O)CSCC(=O)N[C@@H](Cc2ccc(O)cc2)C(=O)N(C)[C@@H](C)C(=O)N[C@@H](CC(N)=O)C(=O)N2CCC[C@H]2C(=O)N[C@@H](CN)C(=O)N[C@@H](CC(C)C)C(=O)N2C[C@H](O)C[C@H]2C(=O)N[C@@H](Cc2c[nH]c3ccccc23)C(=O)N[C@@H](CCN)C(=O)N[C@@H](Cc2cn(CC(=O)O)c3ccccc23)C(=O)N1C` [Example 11252] ({CH2CO}-Y[NMeA]NP[Dap]L[Hyp]W[Dab][Trp(1-CH2COOH)][NMeNle][NMeNle]LCDD(X12)-OH; thioether N-14), with 7.00 to 8.00; and `CCCC[C@H]1C(=O)N(C)[C@@H](CCCC)C(=O)N[C@@H](CC(C)C)C(=O)N[C@H](C(=O)NCC(=O)N[C@@H](CCC(=O)O)C(=O)NCCCOCCOCCOCCCNC(=O)CC[C@H](NC(=O)CCCCCCCCCCCCC(=O)O)C(=O)O)CSCC(=O)N[C@@H](Cc2ccc(O)cc2)C(=O)N(C)[C@@H](C)C(=O)N[C@@H](CC(N)=O)C(=O)N2CCC[C@H]2C(=O)N[C@@H](CN)C(=O)N[C@@H](CC(C)C)C(=O)N2C[C@H](O)C[C@H]2C(=O)N[C@@H](Cc2c[nH]c3ccccc23)C(=O)N[C@@H](CCN)C(=O)N[C@@H](Cc2cn(CC(=O)O)c3ccccc23)C(=O)N1C` [Example 11253] ({CH2CO}-Y[NMeA]NP[Dap]L[Hyp]W[Dab][Trp(1-CH2COOH)][NMeNle][NMeNle]LCGE-X11; thioether N-14), with 8.00 to 9.52; and `CCCC[C@H]1C(=O)N(C)[C@@H](CCCC)C(=O)N[C@@H](CC(C)C)C(=O)N[C@H](C(=O)NCC(=O)N[C@@H](CC(=O)O)C(=O)NCCCOCCOCCOCCCNC(=O)CC[C@H](NC(=O)CCCCCCCCCCCCC(=O)O)C(=O)O)CSCC(=O)N[C@@H](Cc2ccc(O)cc2)C(=O)N(C)[C@@H](C)C(=O)N[C@@H](CC(N)=O)C(=O)N2CCC[C@H]2C(=O)N[C@@H](CN)C(=O)N[C@@H](CC(C)C)C(=O)N2C[C@H](O)C[C@H]2C(=O)N[C@@H](Cc2c[nH]c3ccccc23)C(=O)N[C@@H](CCN)C(=O)N[C@@H](Cc2cn(CC(=O)O)c3ccccc23)C(=O)N1C` [Example 11254] ({CH2CO}-Y[NMeA]NP[Dap]L[Hyp]W[Dab][Trp(1-CH2COOH)][NMeNle][NMeNle]LCGD-X11; thioether N-14), with 8.00 to 9.52. Then `CCCC[C@H]1C(=O)N(C)[C@@H](CCCC)C(=O)N[C@@H](CC(C)C)C(=O)N[C@H](C(=O)NCC(=O)N[C@@H](CCC(=O)O)C(=O)NCCCOCCOCCOCCCNC(=O)C[C@H](NC(=O)CCCCCCCCCCCCCCCCC(=O)O)C(=O)O)CSCC(=O)N[C@@H](Cc2ccc(O)cc2)C(=O)N(C)[C@@H](C)C(=O)N[C@@H](CC(N)=O)C(=O)N2CCC[C@H]2C(=O)N[C@@H](CN)C(=O)N[C@@H](CC(C)C)C(=O)N2C[C@H](O)C[C@@H]2C(=O)N[C@@H](Cc2c[nH]c3ccccc23)C(=O)N[C@@H](CCN)C(=O)N[C@@H](Cc2cn(CC(=O)O)c3ccccc23)C(=O)N1C` [Example 11257] ({CH2CO}-Y[NMeA]NP[Dap]L[d(cisHyp)]W[Dab][Trp(1-CH2COOH)][NMeNle][NMeNle]LCGE-X4; thioether N-14), with 8.00 to 9.52; and `CCCC[C@H]1C(=O)N(C)[C@@H](CCCC)C(=O)N[C@@H](CC(C)C)C(=O)N[C@H](C(=O)NCCCOCCOCCOCCCNC(=O)C[C@H](NC(=O)CCCCCCCCCCCCCCCCC(=O)O)C(=O)O)CSCC(=O)N[C@@H](Cc2ccc(O)cc2)C(=O)N(C)[C@@H](C)C(=O)N[C@@H](CC(N)=O)C(=O)N2CCC[C@H]2C(=O)N[C@@H](CN)C(=O)N[C@@H](CC(C)C)C(=O)N2C[C@H](O)C[C@H]2C(=O)N[C@@H](Cc2c[nH]c3ccccc23)C(=O)N[C@@H](CCN)C(=O)N[C@@H](Cc2cn(CC(=O)O)c3ccccc23)C(=O)N1C` [Example 11258] ({CH2CO}-Y[NMeA]NP[Dap]L[Hyp]W[Dab][Trp(1-CH2COOH)][NMeNle][NMeNle]LC-X4; thioether N-14), with 7.00 to 8.00; and `CCCC[C@H]1C(=O)N(C)[C@@H](CCCC)C(=O)N[C@@H](CC(C)C)C(=O)N[C@H](C(=O)NCC(=O)NCCCOCCOCCOCCCNC(=O)CC[C@H](NC(=O)CCCCCCCCCCCCC(=O)O)C(=O)O)CSCC(=O)N[C@@H](Cc2ccc(O)cc2)C(=O)N(C)[C@@H](C)C(=O)N[C@@H](CC(N)=O)C(=O)N2CCC[C@H]2C(=O)N[C@@H](CN)C(=O)N[C@@H](CC(C)C)C(=O)N2C[C@H](O)C[C@H]2C(=O)N[C@@H](Cc2c[nH]c3ccccc23)C(=O)N[C@@H](CCN)C(=O)N[C@@H](Cc2cn(CC(=O)O)c3ccccc23)C(=O)N1C` [Example 11260] ({CH2CO}-Y[NMeA]NP[Dap]L[Hyp]W[Dab][Trp(1-CH2COOH)][NMeNle][NMeNle]LCG-X11; thioether N-14), with 8.00 to 9.52.

`CCCC[C@H]1C(=O)N(C)[C@@H](CCCC)C(=O)N[C@@H](CC(C)C)C(=O)N[C@H](C(=O)N[C@@H](CC(=O)O)C(=O)N[C@@H](CCC(=O)NCCCOCCOCCOCCCNC(=O)CC[C@H](NC(=O)CCCCCCCCCCCCC(=O)O)C(=O)O)C(=O)O)CSCC(=O)N[C@@H](Cc2ccc(O)cc2)C(=O)N(C)[C@@H](C)C(=O)N[C@@H](CC(N)=O)C(=O)N2CCC[C@H]2C(=O)N[C@@H](CN)C(=O)N[C@@H](CC(C)C)C(=O)N2C[C@H](O)C[C@H]2C(=O)N[C@@H](Cc2c[nH]c3ccccc23)C(=O)N[C@@H](CCN)C(=O)N[C@@H](Cc2cn(CC(=O)O)c3ccccc23)C(=O)N1C` [Example 11261] ({CH2CO}-Y[NMeA]NP[Dap]L[Hyp]W[Dab][Trp(1-CH2COOH)][NMeNle][NMeNle]LCDE(X11)-OH; thioether N-14): the pIC50 is 8.00 to 9.52.

With `CCCC[C@H]1C(=O)N(C)[C@@H](CCCC)C(=O)N[C@@H](CC(C)C)C(=O)N[C@H](C(=O)NCC(=O)N[C@@H](CC(=O)NCCCOCCOCCOCCCNC(=O)CC[C@H](NC(=O)CCCCCCCCCCCCCCCCC(=O)O)C(=O)O)C(=O)O)CSCC(=O)N[C@@H](Cc2ccc(O)cc2)C(=O)N2CCCC[C@H]2C(=O)N[C@@H](CC(N)=O)C(=O)N2CCC[C@H]2C(=O)N[C@@H](CN)C(=O)N[C@@H](CC(C)C)C(=O)N2C[C@H](O)C[C@H]2C(=O)N[C@@H](Cc2c[nH]c3ccccc23)C(=O)N[C@@H](CCN)C(=O)N[C@@H](Cc2cn(CC(=O)O)c3ccccc23)C(=O)N1C` [Example 11262] ({CH2CO}-Y[Pip]NP[Dap]L[Hyp]W[Dab][Trp(1-CH2COOH)][NMeNle][NMeNle]LCGD(X6)-OH; thioether N-14), the pIC50 is 7.00 to 8.00. Under `CCCC[C@H]1C(=O)N(C)[C@@H](CCCC)C(=O)N[C@@H](CC(C)C)C(=O)N[C@H](C(=O)NCC(=O)N[C@@H](CCC(=O)NCCCOCCOCCOCCCNC(=O)CC[C@H](NC(=O)CCCCCCCCCCCCCCCCC(=O)O)C(=O)O)C(=O)O)CSCC(=O)N[C@@H](Cc2ccc(F)cc2)C(=O)N2CCCC[C@H]2C(=O)N[C@@H](CC(=O)O)C(=O)N2CCC[C@H]2C(=O)N[C@@H](CN)C(=O)N[C@@H](CCC(=O)O)C(=O)N2C[C@H](O)C[C@H]2C(=O)N[C@@H](Cc2c[nH]c3ccccc23)C(=O)N[C@@H](CCN)C(=O)N[C@@H](Cc2cn(CC(=O)O)c3ccccc23)C(=O)N1C` [Example 11263] ({CH2CO}-[Phe(4-F)][Pip]DP[Dap]E[Hyp]W[Dab][Trp(1-CH2COOH)][NMeNle][NMeNle]LCGE(X6)-OH; thioether N-14) stands 8.00 to 9.52. Then `CCCC[C@H]1C(=O)N(C)[C@@H](CCCC)C(=O)N[C@@H](CC(C)C)C(=O)N[C@H](C(=O)NCC(=O)N[C@@H](CC(=O)O)C(=O)NCCCOCCOCCOCCCNC(=O)CC[C@H](NC(=O)CCCCCCCCCCCCCCCCC(=O)O)C(=O)O)CSCC(=O)N[C@@H](Cc2ccc(F)cc2)C(=O)N2CCCC[C@H]2C(=O)N[C@@H](CC(=O)O)C(=O)N2CCC[C@H]2C(=O)N[C@@H](CN)C(=O)N[C@@H](CCC(=O)O)C(=O)N2C[C@H](O)C[C@H]2C(=O)N[C@@H](Cc2c[nH]c3ccccc23)C(=O)N[C@@H](CCN)C(=O)N[C@@H](Cc2cn(CC(=O)O)c3ccccc23)C(=O)N1C` [Example 11264] ({CH2CO}-[Phe(4-F)][Pip]DP[Dap]E[Hyp]W[Dab][Trp(1-CH2COOH)][NMeNle][NMeNle]LCGD-X6; thioether N-14), with 8.00 to 9.52; and `CCCC[C@H]1C(=O)N(C)[C@@H](CCCC)C(=O)N[C@@H](CC(C)C)C(=O)N[C@H](C(=O)NCC(=O)N[C@@H](CCC(=O)O)C(=O)NCCCOCCOCCOCCCNC(=O)CC[C@H](NC(=O)CCCCCCCCCCCCCCCCC(=O)O)C(=O)O)CSCC(=O)N[C@@H](Cc2ccc(F)cc2)C(=O)N2CCCC[C@H]2C(=O)N[C@@H](CC(=O)O)C(=O)N2CCC[C@H]2C(=O)N[C@@H](CN)C(=O)N[C@@H](CCC(=O)O)C(=O)N2C[C@H](O)C[C@H]2C(=O)N[C@@H](Cc2c[nH]c3ccccc23)C(=O)N[C@@H](CCN)C(=O)N[C@@H](Cc2cn(CC(=O)O)c3ccccc23)C(=O)N1C` [Example 11265] ({CH2CO}-[Phe(4-F)][Pip]DP[Dap]E[Hyp]W[Dab][Trp(1-CH2COOH)][NMeNle][NMeNle]LCGE-X6; thioether N-14), with 7.00 to 8.00.

The values above are taken from patent US10633419B2, “Immunomodulators” (BRISTOL-MYERS SQUIBB COMPANY, priority 2014, dated 2020).
